Measurements taken from PubChem BioAssay (NCI).
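Protocol summary: plate cells (96-well), add compound at 5 concentrations, incubate 48 h, interpolate endpoints linearly. Abbreviation: GI50, concentration required for 50% inhibition of growth. At the TGI there is no net growth.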

Legend:
Experiment in all cases: NCI anticancer screen, dose series, 48 h
786-0 renal = test system: 786-0 renal
A498 renal = test system: A498 renal
A549 NSCLC = test system: A549 NSCLC
ACHN renal = test system: ACHN renal
BT-549 breast = test system: BT-549 breast
CAKI-1 renal = test system: CAKI-1 renal
CCRF-CEM leukemia = test system: CCRF-CEM leukemia
COLO 205 colon = test system: COLO 205 colon
DU-145 prostate = test system: DU-145 prostate
EKVX NSCLC = test system: EKVX NSCLC
HCC-2998 colon = test system: HCC-2998 colon
HCT-116 colon = test system: HCT-116 colon
HCT-15 colon = test system: HCT-15 colon
HL-60(TB) leukemia = test system: HL-60(TB) leukemia
HOP-62 NSCLC = test system: HOP-62 NSCLC
HOP-92 NSCLC = test system: HOP-92 NSCLC
HS 578T breast = test system: HS 578T breast
HT29 colon = test system: HT29 colon
IGROV1 ovarian = test system: IGROV1 ovarian
K-562 leukemia = test system: K-562 leukemia
KM12 colon = test system: KM12 colon
LOX IMVI melanoma = test system: LOX IMVI melanoma
M14 melanoma = test system: M14 melanoma
MALME-3M melanoma = test system: MALME-3M melanoma
MCF7 breast = test system: MCF7 breast
MDA-MB-231 breast = test system: MDA-MB-231 breast
MDA-MB-435 = test system: MDA-MB-435
MOLT-4 leukemia = test system: MOLT-4 leukemia
NCI-H226 lung = test system: NCI-H226 lung
NCI-H460 lung = test system: NCI-H460 lung
NCI-H522 lung = test system: NCI-H522 lung
NCI/ADR-RES ovarian = test system: NCI/ADR-RES ovarian
OVCAR-3 ovarian = test system: OVCAR-3 ovarian
OVCAR-4 ovarian = test system: OVCAR-4 ovarian
OVCAR-5 ovarian = test system: OVCAR-5 ovarian
OVCAR-8 ovarian = test system: OVCAR-8 ovarian
PC-3 prostate = test system: PC-3 prostate
RPMI-8226 leukemia = test system: RPMI-8226 leukemia
RXF 393 renal = test system: RXF 393 renal
SF-268 CNS = test system: SF-268 CNS
SF-295 CNS = test system: SF-295 CNS
SF-539 CNS = test system: SF-539 CNS
SK-MEL-2 melanoma = test system: SK-MEL-2 melanoma
SK-MEL-28 melanoma = test system: SK-MEL-28 melanoma
SK-MEL-5 melanoma = test system: SK-MEL-5 melanoma
SN12C renal = test system: SN12C renal
SNB-19 CNS = test system: SNB-19 CNS
SNB-75 CNS = test system: SNB-75 CNS
SR leukemia = test system: SR leukemia
SW-620 colon = test system: SW-620 colon
TK-10 renal = test system: TK-10 renal
U251 CNS = test system: U251 CNS
UACC-257 melanoma = test system: UACC-257 melanoma
UACC-62 melanoma = test system: UACC-62 melanoma

Q: How did the GI50 (786-0 renal) turn out when Nc1ncc(-c2ccc3ncnc(N4CCc5cc(F)c(Cl)cc54)c3c2)cn1 was run?
A: 0.741 µM

Q: And the TGI (786-0 renal)?
A: > 100 µM

Q: What about the GI50 (A498 renal) of the same compound?
A: 0.256 µM

Q: And the TGI (A498 renal)?
A: 1.46 µM

Q: What about the GI50 (A549 NSCLC) of the same compound?
A: 1.32 µM

Q: What about the TGI (A549 NSCLC) of the same compound?
A: > 100 µM

Q: And the GI50 (ACHN renal)?
A: 0.557 µM

Q: And the TGI (ACHN renal)?
A: > 100 µM

Q: What about the GI50 (BT-549 breast) of the same compound?
A: 1.06 µM

Q: And the TGI (BT-549 breast)?
A: 7.34 µM

Q: What about the GI50 (CAKI-1 renal) of the same compound?
A: 0.418 µM

Q: What about the TGI (CAKI-1 renal) of the same compound?
A: 6.76 µM

Q: And the GI50 (CCRF-CEM leukemia)?
A: 1.6 µM

Q: What about the TGI (CCRF-CEM leukemia) of the same compound?
A: > 100 µM

Q: What about the GI50 (COLO 205 colon) of the same compound?
A: 1.91 µM

Q: And the TGI (COLO 205 colon)?
A: 16 µM

Q: What about the GI50 (DU-145 prostate) of the same compound?
A: 0.722 µM

Q: And the TGI (DU-145 prostate)?
A: > 100 µM

Q: What about the GI50 (EKVX NSCLC) of the same compound?
A: 0.499 µM

Q: What about the TGI (EKVX NSCLC) of the same compound?
A: 10.1 µM

Q: What about the GI50 (HCC-2998 colon) of the same compound?
A: 3.12 µM

Q: And the TGI (HCC-2998 colon)?
A: > 100 µM

Q: What about the GI50 (HCT-116 colon) of the same compound?
A: 1.99 µM

Q: And the TGI (HCT-116 colon)?
A: > 100 µM

Q: What about the GI50 (HCT-15 colon) of the same compound?
A: 1.94 µM

Q: And the TGI (HCT-15 colon)?
A: > 100 µM

Q: What about the GI50 (HL-60(TB) leukemia) of the same compound?
A: 1.13 µM

Q: What about the TGI (HL-60(TB) leukemia) of the same compound?
A: > 100 µM

Q: And the GI50 (HOP-62 NSCLC)?
A: 1.45 µM

Q: And the TGI (HOP-62 NSCLC)?
A: > 100 µM

Q: What about the GI50 (HOP-92 NSCLC) of the same compound?
A: 0.323 µM

Q: What about the TGI (HOP-92 NSCLC) of the same compound?
A: 3.71 µM

Q: And the GI50 (HS 578T breast)?
A: 0.406 µM

Q: And the TGI (HS 578T breast)?
A: 3.06 µM

Q: And the GI50 (HT29 colon)?
A: 1.77 µM

Q: And the TGI (HT29 colon)?
A: > 100 µM

Q: What about the GI50 (IGROV1 ovarian) of the same compound?
A: 0.244 µM

Q: What about the TGI (IGROV1 ovarian) of the same compound?
A: 1.27 µM

Q: What about the GI50 (K-562 leukemia) of the same compound?
A: 3.16 µM

Q: And the TGI (K-562 leukemia)?
A: > 100 µM

Q: What about the GI50 (KM12 colon) of the same compound?
A: 3.36 µM

Q: And the TGI (KM12 colon)?
A: > 100 µM

Q: What about the GI50 (LOX IMVI melanoma) of the same compound?
A: 1.94 µM

Q: What about the TGI (LOX IMVI melanoma) of the same compound?
A: > 100 µM

Q: And the GI50 (M14 melanoma)?
A: 2.86 µM

Q: What about the TGI (M14 melanoma) of the same compound?
A: > 100 µM

Q: And the GI50 (MALME-3M melanoma)?
A: 1.73 µM

Q: And the TGI (MALME-3M melanoma)?
A: > 100 µM

Q: And the GI50 (MCF7 breast)?
A: 0.278 µM

Q: What about the TGI (MCF7 breast) of the same compound?
A: > 100 µM

Q: And the GI50 (MDA-MB-231 breast)?
A: 1.02 µM

Q: What about the TGI (MDA-MB-231 breast) of the same compound?
A: 14.3 µM

Q: And the GI50 (MDA-MB-435)?
A: 2.61 µM

Q: And the TGI (MDA-MB-435)?
A: > 100 µM

Q: What about the GI50 (MOLT-4 leukemia) of the same compound?
A: 1.83 µM

Q: What about the TGI (MOLT-4 leukemia) of the same compound?
A: 36.6 µM

Q: What about the GI50 (NCI-H226 lung) of the same compound?
A: 1.34 µM

Q: And the TGI (NCI-H226 lung)?
A: > 100 µM

Q: And the GI50 (NCI-H460 lung)?
A: 1.04 µM

Q: What about the TGI (NCI-H460 lung) of the same compound?
A: > 100 µM

Q: And the GI50 (NCI-H522 lung)?
A: 2.8 µM

Q: What about the TGI (NCI-H522 lung) of the same compound?
A: > 100 µM

Q: And the GI50 (NCI/ADR-RES ovarian)?
A: 2.7 µM

Q: And the TGI (NCI/ADR-RES ovarian)?
A: > 100 µM

Q: And the GI50 (OVCAR-3 ovarian)?
A: 1.35 µM

Q: What about the TGI (OVCAR-3 ovarian) of the same compound?
A: > 100 µM

Q: And the GI50 (OVCAR-4 ovarian)?
A: 2.86 µM

Q: What about the TGI (OVCAR-4 ovarian) of the same compound?
A: > 100 µM

Q: What about the GI50 (OVCAR-5 ovarian) of the same compound?
A: 1.16 µM

Q: And the TGI (OVCAR-5 ovarian)?
A: > 100 µM

Q: What about the GI50 (OVCAR-8 ovarian) of the same compound?
A: 2.3 µM

Q: And the TGI (OVCAR-8 ovarian)?
A: > 100 µM

Q: And the GI50 (PC-3 prostate)?
A: 1.03 µM

Q: And the TGI (PC-3 prostate)?
A: > 100 µM

Q: What about the GI50 (RPMI-8226 leukemia) of the same compound?
A: 0.866 µM

Q: What about the TGI (RPMI-8226 leukemia) of the same compound?
A: 5.44 µM

Q: What about the GI50 (RXF 393 renal) of the same compound?
A: 0.35 µM

Q: And the TGI (RXF 393 renal)?
A: 2.26 µM

Q: And the GI50 (SF-268 CNS)?
A: 1.02 µM

Q: And the TGI (SF-268 CNS)?
A: > 100 µM

Q: What about the GI50 (SF-295 CNS) of the same compound?
A: 1.82 µM

Q: What about the TGI (SF-295 CNS) of the same compound?
A: > 100 µM

Q: What about the GI50 (SF-539 CNS) of the same compound?
A: 1.91 µM

Q: What about the TGI (SF-539 CNS) of the same compound?
A: > 100 µM

Q: What about the GI50 (SK-MEL-2 melanoma) of the same compound?
A: 2.43 µM

Q: What about the TGI (SK-MEL-2 melanoma) of the same compound?
A: 8.53 µM

Q: What about the GI50 (SK-MEL-28 melanoma) of the same compound?
A: 2.64 µM

Q: What about the TGI (SK-MEL-28 melanoma) of the same compound?
A: > 100 µM

Q: What about the GI50 (SK-MEL-5 melanoma) of the same compound?
A: 2.29 µM

Q: And the TGI (SK-MEL-5 melanoma)?
A: 11 µM

Q: And the GI50 (SN12C renal)?
A: 1.06 µM

Q: And the TGI (SN12C renal)?
A: > 100 µM

Q: And the GI50 (SNB-19 CNS)?
A: 2.42 µM

Q: And the TGI (SNB-19 CNS)?
A: > 100 µM

Q: What about the GI50 (SNB-75 CNS) of the same compound?
A: 0.162 µM

Q: What about the TGI (SNB-75 CNS) of the same compound?
A: 1.85 µM

Q: And the GI50 (SR leukemia)?
A: 2.25 µM

Q: And the TGI (SR leukemia)?
A: > 100 µM

Q: What about the GI50 (SW-620 colon) of the same compound?
A: 2.51 µM

Q: And the TGI (SW-620 colon)?
A: > 100 µM

Q: What about the GI50 (TK-10 renal) of the same compound?
A: 0.696 µM

Q: And the TGI (TK-10 renal)?
A: 7.41 µM

Q: What about the GI50 (U251 CNS) of the same compound?
A: 3.26 µM

Q: And the TGI (U251 CNS)?
A: > 100 µM

Q: And the GI50 (UACC-257 melanoma)?
A: 3.73 µM

Q: What about the TGI (UACC-257 melanoma) of the same compound?
A: > 100 µM

Q: What about the GI50 (UACC-62 melanoma) of the same compound?
A: 0.731 µM

Q: And the TGI (UACC-62 melanoma)?
A: 6.87 µM
